Test results reported in ChEMBL document CHEMBL1149622, “Synthesis, resolution, stereochemistry, and molecular modeling of (R)- and (S)-2-acetyl-1-(4'-chlorophenyl)-6,7-dimethoxy-1,2,3,4-tetrahydroisoquinoline AMPAR antagonists” (2007).

What was measured:
Mus musculus [1] = organism: Mus musculus; experiment: Anticonvulsant activity against audiogenic clonus seizures in DBA/2 mouse after 30 mins; type: functional; details: DBA/2, 0.5 h
Mus musculus [2] = organism: Mus musculus; experiment: Anticonvulsant activity against audiogenic tonus seizures in DBA/2 mouse after 30 mins; type: functional; details: DBA/2, 0.5 h

SMILES	ED50 (Mus musculus [1]) [µmol/kg]	ED50 (Mus musculus [2]) [µmol/kg]
COc1cc2c(cc1OC)[C@@H](c1ccc(Cl)cc1)N(C(C)=O)CC2	4.1	2.05
COc1cc2c(cc1OC)[C@H](c1ccc(Cl)cc1)N(C(C)=O)CC2	22.4	11.2
COc1cc2c(cc1OC)C(c1ccc(Cl)cc1)N(C(C)=O)CC2 (racemic)	6.51	3.53
